In patent US12281149B2, “Modulators of G-protein coupled receptors” (priority 2021, dated 2025) one finds EC50 and Emax data, which are given here for five molecules.

*1 amine or outer side, *2 acyl side, *3 side chain or, on linkers, in order; H or OH if unused. Where a SMILES comes first, the peptide text is derived from it. Side-chain parts run from the residue outwards. [ ]: non-standard residue; d: D form. The star is where a group is joined. Isobutyryl(2-(3-CN-5-F-Ph)) = CC(C)(C(=O)*)c1cc(F)cc(C#N)c1; C20 diacid = O=C(O)CCCCCCCCCCCCCCCCCCC(=O)*; X75 = C[C@@](Cc1nn[nH]n1)(N[*:1])C(=O)[*:2]; γGlu = O=C(O)[C@H](CCC(=O)[*:2])N[*:1]; X27 = O=C1CC(C(=O)*)(c2ccccc2)CN1; X14 = CC(C)(C(=O)*)n1cc(Br)cn1; X25 = CC(C)(C(=O)*)n1cc(F)cn1; AEEA = NCCOCCOCC(=O)O; Aib = CC(C)(N)C(=O)O; βAla = NCCC(=O)O A value given as a limit tells only on which side of the number the result lay.

Format in all cases: cell-based
Experiment [1] addresses T1, GLP-1 receptor (Homo sapiens, UniProt P43220). The experiment is described as follows: PathHunter β-arrestin assay, GLP-1 receptor. Set-up: host or cells: PathHunter CHO-K1 GLP1R β-Arrestin Cell Line. The note with it: β-arrestin-2 recruitment, PathHunter CHO-K1 GLP1R β-Arrestin Cell Line, 90 min at 37° C.; normalized to GLP-1; read-out: GLP-1R β Arrestin EC50. A general note: Arrestin recruitment assays detect the binding of arrestin to an activated receptor.

Experiment [2] addresses T2, GIP receptor (Homo sapiens, UniProt P48546).
T2 sequence (P48546 22-466): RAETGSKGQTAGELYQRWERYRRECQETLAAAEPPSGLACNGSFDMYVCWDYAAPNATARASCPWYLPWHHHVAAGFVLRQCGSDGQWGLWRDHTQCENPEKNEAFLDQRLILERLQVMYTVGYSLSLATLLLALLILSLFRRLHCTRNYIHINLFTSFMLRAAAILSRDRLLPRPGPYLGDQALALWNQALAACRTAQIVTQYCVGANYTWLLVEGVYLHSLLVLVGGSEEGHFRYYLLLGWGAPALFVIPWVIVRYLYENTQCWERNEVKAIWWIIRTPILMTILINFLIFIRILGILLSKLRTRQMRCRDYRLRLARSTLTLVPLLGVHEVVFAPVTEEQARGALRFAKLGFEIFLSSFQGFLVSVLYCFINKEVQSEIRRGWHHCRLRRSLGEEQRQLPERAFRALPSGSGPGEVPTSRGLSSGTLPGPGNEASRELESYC
The experiment is described as follows: HitHunter cAMP assay, GIP receptor. The note with it: for EC50: CHO cells stably expressing GIP receptor, cAMP accumulation, 30 min, read-out: EC50 GIP-1R; for Emax: CHO cells, cAMP, normalized to maximum signal from GIP (high) and DMSO (low), read-out: Emax GIP-1R. For orientation: Changes in cAMP serve as a functional read-out for many G protein-coupled receptors.

Experiment [3] addresses T1, GLP-1 receptor. The experiment is described as follows: HitHunter cAMP assay, GLP-1 receptor. The note with it: for EC50: CHO cells stably expressing human GLP-1 receptor, cAMP accumulation, 30 min, read-out: EC50 GLP-1R; for Emax: CHO cells, cAMP, normalized to maximum signal from GLP-1 (high) and DMSO (low), read-out: Emax GLP-1R.
In experiment [4] the target is T2, GIP receptor. The experiment is described as follows: PathHunter β-arrestin assay, GIP receptor. Set-up: host or cells: PathHunter CHO-K1 GIPR β-Arrestin Cell Line. As to conditions: β-arrestin-2 recruitment, PathHunter CHO-K1 GIPR β-Arrestin Cell Line, 90 min at 37° C.; normalized to GIP; read-out: GIPR β Arrestin EC50.

T1 sequence (P43220 24-463): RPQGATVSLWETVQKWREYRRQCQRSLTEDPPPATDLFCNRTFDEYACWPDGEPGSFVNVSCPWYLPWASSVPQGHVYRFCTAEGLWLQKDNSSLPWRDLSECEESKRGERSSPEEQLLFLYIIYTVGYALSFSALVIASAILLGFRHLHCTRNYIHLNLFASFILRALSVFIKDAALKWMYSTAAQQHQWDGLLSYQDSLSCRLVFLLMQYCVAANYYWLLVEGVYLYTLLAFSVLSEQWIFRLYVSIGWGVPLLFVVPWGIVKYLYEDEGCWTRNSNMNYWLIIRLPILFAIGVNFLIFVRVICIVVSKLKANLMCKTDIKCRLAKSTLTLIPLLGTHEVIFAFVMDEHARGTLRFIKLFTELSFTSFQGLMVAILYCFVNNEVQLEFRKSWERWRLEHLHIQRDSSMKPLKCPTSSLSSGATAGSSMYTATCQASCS

As to `CC[C@H](C)[C@H](NC(=O)[C@H](CC(C)C)NC(=O)[C@H](Cc1c[nH]c2ccccc12)NC(=O)[C@H](CCC(N)=O)NC(=O)[C@@H](NC(=O)[C@H](Cc1ccccc1)NC(=O)[C@H](C)NC(=O)[C@H](CCCCNC(=O)COCCOCCNC(=O)COCCOCCNC(=O)CC[C@H](NC(=O)CCCCCCCCCCCCCCCCCCC(=O)O)C(=O)O)NC(=O)[C@H](CCC(N)=O)NC(=O)[C@H](C)NC(=O)[C@@H](NC(=O)[C@H](CCCCN)NC(=O)[C@H](CC(=O)O)NC(=O)[C@H](CC(C)C)NC(=O)C(C)(C)NC(=O)[C@@H](NC(=O)[C@H](CO)NC(=O)[C@H](Cc1ccc(O)cc1)NC(=O)[C@H](CC(=O)O)NC(=O)[C@H](CO)NC(=O)[C@@H](NC(=O)[C@H](Cc1ccccc1)NC(=O)[C@@H](NC(=O)CNC(=O)[C@@H](CC(=O)O)NC(=O)CCNC(=O)C1(c2ccccc2)CNC(=O)C1)[C@@H](C)O)[C@@H](C)O)[C@@H](C)CC)[C@@H](C)CC)C(C)C)C(=O)N[C@@H](C)C(=O)NCC(=O)NCC(=O)N1CCC[C@H]1C(=O)N[C@@H](CO)C(=O)N[C@@H](CO)C(=O)NCC(=O)N[C@@H](C)C(=O)N1CCC[C@H]1C(=O)N1CCC[C@H]1C(=O)N1CCC[C@H]1C(=O)N[C@@H](CO)C(N)=O` (stereo partly drawn) [Compound 122] ({X27-βAla}-[dD]GTFTSDYSI[Aib]LDKIAQK([AEEA-AEEA-γGlu-C20 diacid])AFVQWLIAGGPSSGAPPPS-NH2), the half-maximal effective concentration (EC50) (usually the midpoint of the concentration-response curve) was more than 1000 nM on GLP-1 receptor [1], 10 to 100 nM at GIP receptor [2], 1 to 10 nM at GLP-1 receptor [3] and less than 1000 nM at GIP receptor [4]. Moreover, the Emax (in general, the maximal effect, on the per cent scale that the assay sets) came out at 92% on GIP receptor [2] and 100% on GLP-1 receptor [3].

Turning to `CC[C@H](C)[C@H](NC(=O)[C@H](CC(C)C)NC(=O)[C@H](Cc1c[nH]c2ccccc12)NC(=O)[C@H](CCC(N)=O)NC(=O)[C@@H](NC(=O)[C@H](Cc1ccccc1)NC(=O)[C@H](C)NC(=O)[C@H](CCCCNC(=O)COCCOCCNC(=O)COCCOCCNC(=O)CC[C@H](NC(=O)CCCCCCCCCCCCCCCCCCC(=O)O)C(=O)O)NC(=O)[C@H](CCC(N)=O)NC(=O)[C@H](C)NC(=O)[C@@H](NC(=O)[C@H](CCCCN)NC(=O)[C@H](CC(=O)O)NC(=O)[C@H](CC(C)C)NC(=O)C(C)(C)NC(=O)[C@@H](NC(=O)[C@H](CO)NC(=O)[C@H](Cc1ccc(O)cc1)NC(=O)[C@H](CC(=O)O)NC(=O)[C@H](CO)NC(=O)[C@@H](NC(=O)[C@H](Cc1ccccc1)NC(=O)[C@@H](NC(=O)CNC(=O)[C@](C)(Cc1nn[nH]n1)NC(=O)CCNC(=O)C(C)(C)c1cc(F)cc(C#N)c1)[C@@H](C)O)[C@@H](C)O)[C@@H](C)CC)[C@@H](C)CC)C(C)C)C(=O)N[C@@H](C)C(=O)NCC(=O)NCC(=O)N1CCC[C@H]1C(=O)N[C@@H](CO)C(=O)N[C@@H](CO)C(=O)NCC(=O)N[C@@H](C)C(=O)N1CCC[C@H]1C(=O)N1CCC[C@H]1C(=O)N1CCC[C@H]1C(=O)N[C@@H](CO)C(N)=O` [Compound 126] ({Isobutyryl(2-(3-CN-5-F-Ph))-βAla}-[X75]GTFTSDYSI[Aib]LDKIAQK([AEEA-AEEA-γGlu-C20 diacid])AFVQWLIAGGPSSGAPPPS-NH2), the EC50 at GLP-1 receptor [1] is more than 1000 nM; at GIP receptor [2], 100 to 1000 nM; at GLP-1 receptor [3], 100 to 1000 nM; at GIP receptor [4], more than 1000 nM. In addition, the maximal effect (Emax) on GIP receptor [2] was determined as 97%; on GLP-1 receptor [3] it was 59%.

Regarding `CC[C@H](C)[C@H](NC(=O)[C@H](CC(C)C)NC(=O)[C@H](Cc1c[nH]c2ccccc12)NC(=O)[C@H](CCC(N)=O)NC(=O)[C@@H](NC(=O)[C@H](Cc1ccccc1)NC(=O)[C@H](C)NC(=O)[C@H](CCCCNC(=O)COCCOCCNC(=O)COCCOCCNC(=O)CC[C@H](NC(=O)CCCCCCCCCCCCCCCCCCC(=O)O)C(=O)O)NC(=O)[C@H](CCC(N)=O)NC(=O)[C@H](C)NC(=O)[C@@H](NC(=O)[C@H](CCCCN)NC(=O)[C@H](CC(=O)O)NC(=O)[C@H](CC(C)C)NC(=O)C(C)(C)NC(=O)[C@@H](NC(=O)[C@H](CO)NC(=O)[C@H](Cc1ccc(O)cc1)NC(=O)[C@H](CC(=O)O)NC(=O)[C@H](CO)NC(=O)[C@@H](NC(=O)[C@H](Cc1ccccc1)NC(=O)[C@@H](NC(=O)CNC(=O)[C@@H](CC(=O)O)NC(=O)CCNC(=O)C(C)(C)c1cc(F)cc(C#N)c1)[C@@H](C)O)[C@@H](C)O)[C@@H](C)CC)[C@@H](C)CC)C(C)C)C(=O)N[C@@H](C)C(=O)NCC(=O)NCC(=O)N1CCC[C@H]1C(=O)N[C@@H](CO)C(=O)N[C@@H](CO)C(=O)NCC(=O)N[C@@H](C)C(=O)N1CCC[C@H]1C(=O)N1CCC[C@H]1C(=O)N1CCC[C@H]1C(=O)N[C@@H](CO)C(N)=O` [Compound 127] ({Isobutyryl(2-(3-CN-5-F-Ph))-βAla}-[dD]GTFTSDYSI[Aib]LDKIAQK([AEEA-AEEA-γGlu-C20 diacid])AFVQWLIAGGPSSGAPPPS-NH2), the EC50 on GLP-1 receptor [1] is more than 1000 nM; on GIP receptor [2], 100 to 1000 nM; on GLP-1 receptor [3] it was 1 to 10 nM; at GIP receptor [4] it was more than 1000 nM. The Emax on GIP receptor [2] was determined as 82%; on GLP-1 receptor [3], 93%.

Turning to `CC[C@H](C)[C@H](NC(=O)[C@H](CC(C)C)NC(=O)[C@H](Cc1c[nH]c2ccccc12)NC(=O)[C@H](CCC(N)=O)NC(=O)[C@@H](NC(=O)[C@H](Cc1ccccc1)NC(=O)[C@H](C)NC(=O)[C@H](CCCCNC(=O)COCCOCCNC(=O)COCCOCCNC(=O)CC[C@H](NC(=O)CCCCCCCCCCCCCCCCCCC(=O)O)C(=O)O)NC(=O)[C@H](CCC(N)=O)NC(=O)[C@H](C)NC(=O)[C@@H](NC(=O)[C@H](CCCCN)NC(=O)[C@H](CC(=O)O)NC(=O)[C@H](CC(C)C)NC(=O)C(C)(C)NC(=O)[C@@H](NC(=O)[C@H](CO)NC(=O)[C@H](Cc1ccc(O)cc1)NC(=O)[C@H](CC(=O)O)NC(=O)[C@H](CO)NC(=O)[C@@H](NC(=O)[C@H](Cc1ccccc1)NC(=O)[C@@H](NC(=O)CNC(=O)[C@H](CCC(=O)O)NC(=O)CCNC(=O)C(C)(C)n1cc(Br)cn1)[C@@H](C)O)[C@@H](C)O)[C@@H](C)CC)[C@@H](C)CC)C(C)C)C(=O)N[C@@H](C)C(=O)NCC(=O)NCC(=O)N1CCC[C@H]1C(=O)N[C@@H](CO)C(=O)N[C@@H](CO)C(=O)NCC(=O)N[C@@H](C)C(=O)N1CCC[C@H]1C(=O)N1CCC[C@H]1C(=O)N1CCC[C@H]1C(=O)N[C@@H](CO)C(N)=O` [Compound 131] ({X14-βAla}-EGTFTSDYSI[Aib]LDKIAQK([AEEA-AEEA-γGlu-C20 diacid])AFVQWLIAGGPSSGAPPPS-NH2), the concentration for a half-maximal effect (EC50) on GLP-1 receptor [1] is more than 1000 nM; at GIP receptor [2], 10 to 100 nM; at GLP-1 receptor [3] it was 0.1 to 1 nM; at GIP receptor [4], more than 1000 nM. Also, the Emax at GIP receptor [2] was 96%; on GLP-1 receptor [3], 102%.

Turning to `CC[C@H](C)[C@H](NC(=O)[C@H](CC(C)C)NC(=O)[C@H](Cc1c[nH]c2ccccc12)NC(=O)[C@H](CCC(N)=O)NC(=O)[C@@H](NC(=O)[C@H](Cc1ccccc1)NC(=O)[C@H](C)NC(=O)[C@H](CCCCNC(=O)COCCOCCNC(=O)COCCOCCNC(=O)CC[C@H](NC(=O)CCCCCCCCCCCCCCCCCCC(=O)O)C(=O)O)NC(=O)[C@H](CCC(N)=O)NC(=O)[C@H](C)NC(=O)[C@@H](NC(=O)[C@H](CCCCN)NC(=O)[C@H](CC(=O)O)NC(=O)[C@H](CC(C)C)NC(=O)C(C)(C)NC(=O)[C@@H](NC(=O)[C@H](CO)NC(=O)[C@H](Cc1ccc(O)cc1)NC(=O)[C@H](CC(=O)O)NC(=O)[C@H](CO)NC(=O)[C@@H](NC(=O)[C@H](Cc1ccccc1)NC(=O)[C@@H](NC(=O)CNC(=O)[C@H](CCC(=O)O)NC(=O)CCNC(=O)C(C)(C)n1cc(F)cn1)[C@@H](C)O)[C@@H](C)O)[C@@H](C)CC)[C@@H](C)CC)C(C)C)C(=O)N[C@@H](C)C(=O)NCC(=O)NCC(=O)N1CCC[C@H]1C(=O)N[C@@H](CO)C(=O)N[C@@H](CO)C(=O)NCC(=O)N[C@@H](C)C(=O)N1CCC[C@H]1C(=O)N1CCC[C@H]1C(=O)N1CCC[C@H]1C(=O)N[C@@H](CO)C(N)=O` [Compound 132] ({X25-βAla}-EGTFTSDYSI[Aib]LDKIAQK([AEEA-AEEA-γGlu-C20 diacid])AFVQWLIAGGPSSGAPPPS-NH2), the half-maximal effective concentration (EC50) on GLP-1 receptor [1] was less than 1000 nM; on GIP receptor [2], 10 to 100 nM; at GLP-1 receptor [3], less than 0.1 nM; on GIP receptor [4], more than 1000 nM. Moreover, the results for the maximum response (Emax) on GIP receptor [2] and on GLP-1 receptor [3] were 104% and 98%, respectively.
